Measurements from BigSolDB 2.1.

C/C=C/C=C/C(=O)O
solubility (mole fraction)
Conditions	285.15 K	289.15 K	293.15 K	298.15 K	303.15 K	308.15 K	312.65 K	318.15 K	323.15 K
in MTBE	0.0403	0.0439	0.0512	0.0577	0.0693	0.0785	0.093	0.109	0.121
in acetone	0.0476	0.0528	0.0613	0.0701	0.0871	0.0968	0.115	0.14	0.156
in acetonitrile	0.00625	0.00746	0.0098	0.0112	0.0149	0.0172	0.0196	0.0248	0.0306
in ethanol	0.0442	0.0488	0.0572	0.0643	0.0747	0.0872	0.101	0.121	0.143
in ethyl acetate	0.0266	0.0314	0.0357	0.0452	0.0542	0.0626	0.0713	0.0862	0.102
in isopropanol	0.0383	0.0444	0.053	0.0613	0.0684	0.0753	0.086	0.0965	0.103
in methanol	0.0328	0.0392	0.0457	0.0553	0.0643	0.0749	0.083	0.0934	0.106
in n-butanol	0.0619	0.0738	0.0844	0.0973	0.108	0.121	0.135	0.154	0.173
